Patent US8920789B2, “Use of polymer D-lactic acid (PDLA) or equivalents thereof to inhibit growth of cancer cells and diagnose cancers” (The United States of America as represented by the …, priority 2011, dated 2014)

What was measured:
[1] = Interference with l-lactate measurement in saline (L-Lactate Accuvin test strips); conditions: d-lactic acid (0.05 mg) + l-lactic acid (0.06 mg)
Method: Forty mg of d-lactic acid (Sigma-Aldrich, St. Louis, Mo.; catalog no. L0625) was polymerized in a microwave oven according to the method of Pandey and Aswath (J Biomater Sci Polym Ed. 2009; 20(1):33-48). Briefly, d-lactic acid was transferred to 2 ml Reacti-Vials (Pierce Chemical Co., Rockford, Ill.) and the polymerization was carried out vented in a GE Spacemaker Model JVM 1650WH05 (Serial #900524B; manufactured April 2006) with an RF output frequency of 2450 MHz in the absence of any added solvent or catalyst. Polymerization was carried out starting at Power 1 setting on the microwave and weighing at 30 second intervals. […] Weight loss was from water during polymer esterification and dehydration. During the course of the microwave process, d-lactic acid crystals undergo a state change from a solid to a liquid and then to a gel at the end of the process. Similar procedure was used to produce PLLA with l-lactic acid.
[…] Measurement of l-lactate with L-Lactate Accuvin Test strips (Accuvin LLC, Napa, Ca), using stereospecific lactate dehydrogenase and a tetrazolium color indicator, measured less l-lactate (interference) in the experimental sample as evidenced by colorimetric determination. Experimental sample vs, control measured 10 mg/L vs, 50 mg/L of l-lactate. Other relevant tests using similar methodology and D-Lactate Accuvin Test strips are as follows:

[2] = Interference with d-lactate measurement in saline (D-Lactate Accuvin test strips); conditions: similar methodology

Molecule `C[C@@H](O)C(=O)O` [d-lactic acid] has a l-lactate test strip [1] of 50 mg/L.

With `C[C@H](O)C(=O)O` [l-lactic acid] the “Interference with lactate measurement (in words)” value [2] was “No interference”.
